“And” between values parts separate entries of the source, which are not always exact repeats. Equal values may be shown once.
What was measured:
[1] = molecular target: T1, CRBN^midi (Homo sapiens, UniProt Q96SW2, C287N/C343E/C78I/DEL188-248/G302D/I92V/INS187GSG/K116N/L342R/L423I/Q134E/R283W/T359I/V293S); experiment: Thermal denaturation (turbidity, Prometheus Panta) of CRBN^midi +/- binders, Fig. 2f; type: binding; set-up: First derivative: unit not given here; settings: for increase of Tm / denaturation temperature of CRBN^midi / melting temperature (Tm) of CRBN^midi in presence of binder: 100 µM binder; for increase of Tm / denaturation temperature of CRBN^midi: versus apo; for melting temperature (Tm) of CRBN^midi in presence of binder: apo Tm 44.5 °C; for First derivative: thermal denaturation trace
T1 construct: amino acids 41-187 followed by a Gly-Ser-Gly linker and amino acids 249-426; His6 (N, cleaved yes); made in house; host or cells: E. coli BL21(DE3)
T1 sequence (Q96SW2 with tags, fused parts or gaps with the stated changes limits assumed): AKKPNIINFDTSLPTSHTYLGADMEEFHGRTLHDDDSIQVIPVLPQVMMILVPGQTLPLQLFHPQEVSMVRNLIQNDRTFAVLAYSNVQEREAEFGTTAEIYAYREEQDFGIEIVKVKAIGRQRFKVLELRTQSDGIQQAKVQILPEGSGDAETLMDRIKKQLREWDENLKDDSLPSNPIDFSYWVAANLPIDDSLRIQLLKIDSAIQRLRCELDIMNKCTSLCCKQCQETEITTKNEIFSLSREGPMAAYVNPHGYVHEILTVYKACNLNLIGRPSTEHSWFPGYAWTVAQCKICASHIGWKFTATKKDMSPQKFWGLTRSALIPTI
Method: Protein aggregation was assessed, and turbidity values were calculated by the PR.Panta control software (NanoTemper Technologies). First derivative curves were plotted using Prism software (GraphPad version 10).

[2] = molecular target: T1, CRBN^midi; experiment: SEC-SAXS of CRBN^midi with binders (radius of gyration); settings: for RG of ligand-bound CRBN^midi: 200 µM ligand, apo 26.73 Å; for Rg, P(r) Analysis from AUTOGNOM / dmax, P(r) analysis / Rg, Guinier analysis: Supplementary Table 3; for Rg, P(r) Analysis from AUTOGNOM: apo 26.91 ± 0.04; for dmax, P(r) analysis: apo 172.46; for Rg, Guinier analysis: binder 400 µM (mezigdomide, lenalidomide) or 200 µM (Boc-VcN, Boc-AcQ), apo 26.73 ± 0.06; on Rg, Guinier analysis: values in Å; on Rg, P(r) Analysis from AUTOGNOM: values in Å; on dmax, P(r) analysis: values in Å
Method: Frames from SEC-SAXS that corresponded to the main protein peak, were merged using Chromixs[61] and analyzed using the ATSAS (version 3.2.1) package. Radii of gyration and molecular mass were extrapolated from the Guinier plot using Primus. Pairwise-distance distributions were calculated using GNOM[63]. The dimensionless Kratky plot[49] was obtained by manually plotting (qRg)^2I(q)/I0 against qRg.
The open conformation model was obtained by homology modelling using the SWISS-MODEL webserver (accessed April 18th 2023)[65] with the cryo-EM structure of apo-CRBN (PDB ID: 8CVP)[25] as the input structure.

[3] = T[°C] 86.7721 lenalidomide, 86.7698 Boc-VcN, 86.7691 Boc-AcQ
[4] = T[°C] 86.8918 lenalidomide, 86.8895 Boc-VcN, 86.8888 Boc-AcQ
[5] = T[°C] 87.0114 lenalidomide, 87.0091 Boc-VcN, 87.0084 Boc-AcQ
[6] = T[°C] 87.1311 lenalidomide, 87.1288 Boc-VcN, 87.1281 Boc-AcQ
[7] = T[°C] 87.2507 lenalidomide, 87.2484 Boc-VcN, 87.2477 Boc-AcQ
[8] = T[°C] 87.3704 lenalidomide, 87.3681 Boc-VcN, 87.3674 Boc-AcQ
[9] = T[°C] 87.49 lenalidomide, 87.4877 Boc-VcN, 87.487 Boc-AcQ
[10] = T[°C] 87.6097 lenalidomide, 87.6074 Boc-VcN, 87.6067 Boc-AcQ
[11] = T[°C] 87.7294 lenalidomide, 87.727 Boc-VcN, 87.7263 Boc-AcQ
[12] = T[°C] 87.849 lenalidomide, 87.8467 Boc-VcN, 87.846 Boc-AcQ
[13] = T[°C] 87.9687 lenalidomide, 87.9664 Boc-VcN, 87.9656 Boc-AcQ
[14] = T[°C] 88.0883 lenalidomide, 88.086 Boc-VcN, 88.0853 Boc-AcQ
[15] = T[°C] 88.208 lenalidomide, 88.2057 Boc-VcN, 88.205 Boc-AcQ
[16] = T[°C] 88.3276 lenalidomide, 88.3253 Boc-VcN, 88.3246 Boc-AcQ
[17] = T[°C] 88.4473 lenalidomide, 88.445 Boc-VcN, 88.4443 Boc-AcQ
[18] = T[°C] 88.567 lenalidomide, 88.5646 Boc-VcN, 88.5639 Boc-AcQ
[19] = T[°C] 88.6866 lenalidomide, 88.6843 Boc-VcN, 88.6836 Boc-AcQ
[20] = T[°C] 88.8063 lenalidomide, 88.8039 Boc-VcN, 88.8032 Boc-AcQ
[21] = T[°C] 88.9259 lenalidomide, 88.9236 Boc-VcN, 88.9229 Boc-AcQ
[22] = T[°C] 89.0456 lenalidomide, 89.0432 Boc-VcN, 89.0425 Boc-AcQ
[23] = T[°C] 89.1653 lenalidomide, 89.1629 Boc-VcN, 89.1622 Boc-AcQ
[24] = T[°C] 89.2849 lenalidomide, 89.2825 Boc-VcN, 89.2818 Boc-AcQ
[25] = T[°C] 89.4046 lenalidomide, 89.4022 Boc-VcN, 89.4015 Boc-AcQ
[26] = T[°C] 89.5242 lenalidomide, 89.5218 Boc-VcN, 89.5211 Boc-AcQ
[27] = T[°C] 89.6439 lenalidomide, 89.6415 Boc-VcN, 89.6408 Boc-AcQ
[28] = T[°C] 89.7635 lenalidomide, 89.7612 Boc-VcN, 89.7604 Boc-AcQ
[29] = T[°C] 89.8832 lenalidomide, 89.8808 Boc-VcN, 89.8801 Boc-AcQ
[30] = T[°C] 90.0028 lenalidomide, 90.0005 Boc-VcN, 89.9997 Boc-AcQ

Structure (SMILES)	increase of Tm / denaturation temperature of CRBN^midi [1] [°C]	melting temperature (Tm) of CRBN^midi in presence of binder [1] [°C]	First derivative [1, 3]	First derivative [1, 4]	First derivative [1, 5]	First derivative [1, 6]	First derivative [1, 7]	First derivative [1, 8]	First derivative [1, 9]	First derivative [1, 10]	First derivative [1, 11]	First derivative [1, 12]	First derivative [1, 13]	First derivative [1, 14]	First derivative [1, 15]	First derivative [1, 16]	First derivative [1, 17]	Rg, P(r) Analysis from AUTOGNOM [2] [Å]	dmax, P(r) analysis [2] [Å]	Rg, Guinier analysis [2] [Å]	other results
C[C@H](NC(=O)OC(C)(C)C)C(=O)N[C@H]1CCC(=O)NC1=O [Boc-AcQ, tert-butyl ((S)-1-(((S)-2,6-dioxopiperidin-3-yl)amino)-1-oxopropan-2-yl)carbamate]	8.3	52.8	-0.02853	-0.0315	-0.03497	-0.03881	-0.04291	-0.04716	-0.05142	-0.05268	-0.05356	-0.05436	-0.05515	-0.0559	-0.05659	-0.05718	-0.05764	24.25 ± 0.04	146.92	24.29 ± 0.05	First derivative [1, 18]: -0.05798; First derivative [1, 19]: -0.05817; First derivative [1, 20]: -0.05821; First derivative [1, 21]: -0.0581; First derivative [1, 22]: -0.05783; First derivative [1, 23]: -0.05741; First derivative [1, 24]: -0.05684; First derivative [1, 25]: -0.05611; First derivative [1, 26]: -0.05525; First derivative [1, 27]: -0.05424; First derivative [1, 28]: -0.05311; First derivative [1, 29]: -0.05186; First derivative [1, 30]: -0.0505; RG of ligand-bound CRBN^midi [2]: 24.29 Å and 24.3 Å
CC(C)[C@H](NC(=O)OC(C)(C)C)C(=O)NC1CC(=O)NC1=O (stereo partly drawn) [Boc-VcN, Tert-butyl ((2S)-1-((2,5-dioxopyrrolidin-3-yl)amino)-3-methyl-1-oxobutan-2-yl)carbamate]	11.1	55.6	-0.05947	-0.05823	-0.05736	-0.05707	-0.05755	-0.05896	-0.06138	-0.06805	-0.07618	-0.08482	-0.09355	-0.1023	-0.1109	-0.1196	-0.1282	22.93 ± 0.03	137.14	23.41 ± 0.05	First derivative [1, 18]: -0.1368; First derivative [1, 19]: -0.1455; First derivative [1, 20]: -0.1543; First derivative [1, 21]: -0.1632; First derivative [1, 22]: -0.1723; First derivative [1, 23]: -0.1815; First derivative [1, 24]: -0.191; First derivative [1, 25]: -0.2007; First derivative [1, 26]: -0.2106; First derivative [1, 27]: -0.2208; First derivative [1, 28]: -0.2313; First derivative [1, 29]: -0.2421; First derivative [1, 30]: -0.2531; RG of ligand-bound CRBN^midi [2]: 23.41 Å and 23.4 Å
N#Cc1ccc(N2CCN(Cc3ccc(COc4cccc5c4CN([C@H]4CCC(=O)NC4=O)C5=O)cc3)CC2)c(F)c1 [mezigdomide, Mezigdomide]	–	–	–	–	–	–	–	–	–	–	–	–	–	–	–	–	–	22.45 ± 0.04	145.02	22.79 ± 0.06	–
